Measurements: US5919796A, “Hydroximic acid derivatives, pharmaceutical compositions containing them, and processes for preparing the same” (BIOREX Kutato es Fejleszto Rt., priority 1994, dated 1999)
Counter-ions that a name gives are not always drawn.

How the values were obtained:
[1] = system: thoracal aorta isolated from rabbit; assay: Vasorelaxant effect in vitro on isolated thoracal aorta; conditions: Oryctolagus cuniculus
Excerpt: The vasorelaxant effect of the compounds was investigated in vitro on the thoracal aorta isolated from rabbit [Am. J. Physiol. 257, 1327-1333 (1989)].

sciatic and tibial nerve = assay: Motor and sensory impulse conduction rate of nerves in STZ-induced diabetic rats (diabetic angiopathy complications); assay type: in vivo, male Cr:Wistar rats; conditions: for MCR correction (%): motor conduction rate; for SCR correction (%): sensory conduction rate
Method: Furthermore, the effect of the compounds of the invention in the treatment of complications associated with the diabetic angiopathy was studied. The in vivo action was measured on rats, by the change of rate of the impulse conduction in an STZ-induced diabetic state as follows.
The electrophysiological measurements were carried out on anaesthetized male Cr:Wistar rats at the end of a one-month period of treatment with 20 mg/kg administered orally (p.o.). The sciatic or tibial nerve, respectively, was excited by needle electrodes stitched near the nerve on the lower extremity and the electromyographic (EMG) responses of the plantar muscle were registered. Five EMG-s each were averaged and the results were stored in a computer. The latency periods of the motor and sensory components were measured. The rates of impulse conduction were calculated from the ratio of the distance between two sites of excitation to the differences of latency.

[2] = system: Reperfusion-induced arrhythmia; assay: Reperfusion-induced arrhythmia (ventricular tachycardia and fibrillation, survival) in anaesthetized rats; assay type: in vivo, rat; conditions: 1 mg/kg i.v., 5 minutes before compressing the left-sided descending coronary artery; first 3 minutes of reperfusion
Method: The Reperfusion-induced arrhythmia [ventricular tachycardia (VI) and ventricular fibrillation (VF)] was studied on anaesthetized rats. Myocardial ischemia was elicited by compressing the left-sided descending coronary artery for 5 minutes and after the ceasing thereof, by a 10-minute reperfusion of the heart. ECG was continuously monitored, and the change of the mean duration of VT and VF under effect of the test compounds, as well as the survival, were measured in the first 3 minutes of reperfusion. The test compounds were administered in an intravenous (i.v.) dose of 1 mg/kg by 5 minutes before compressing the left-sided descending coronary artery.

[3] = 20 mg/kg p.o., one-month treatment

Row | Compound | EC50 [1] [µM] | further results
1 | CCN(CC)CCCON=C(Cl)c1cccnc1 [Example 4, O-(3-diethylaminopropyl)-3-pyridinehydroximoyl chloride hydrochloride] | 82 | –
2 | ClC(=NOCCCN1CCCCC1)c1cccnc1 [Example 2, N-(3-piperidinopropoxy)-3-pyridinecarboximodyl chloride dihydrochloride] | 27 | MCR correction (%) (sciatic and tibial nerve; [3]): 100%; SCR correction (%) (sciatic and tibial nerve; [3]): 100%; survival of experimental animals [2]: 100%
3 | N=C(N)NN [Reference drug, aminoguanidine, reference compound] | – | MCR correction (%) (sciatic and tibial nerve; 50 mg/kg of aminoguanidine): 40%; SCR correction (%) (sciatic and tibial nerve; 50 mg/kg of aminoguanidine): 45%
4 | Cl.O=[N+]([O-])c1cccc(C(Cl)=NOCCCN2CCCCC2)c1 [Example 7, O-(3-piperidinopropyl)-3-nitro-benzhydroximoyl chloride hydrochloride] | 6 | MCR correction (%) (sciatic and tibial nerve; [3]): 48%; SCR correction (%) (sciatic and tibial nerve; [3]): 64%; survival of experimental animals [2]: 100%

More lines, main results first:

Row | EC50 [1] [µM] | Compound | further results
5 | 76 | CN1CCN(CCCON=C(Cl)c2cccnc2)CC1 [Example 9, N-[3-(4-methylpiperazin-1-yl)-1-propoxy]-3-pyridinecarboximidoyl chloride trihydrochloride] | –
6 | 83 | CC(C)COCC(CN(Cc1ccccc1)c1ccccc1)N1CCCC1 (stereo not shown) [Ref, Bepridil, reference compound] | –
7 | 13 | ClC(=NOCCN1CCCCC1)c1cccnc1 [Example 6, O-(2-piperidinoethyl)-3-pyridinehydroximoyl chloride hydrochloride] | –
8 | 24 | ClC(=NOCCCN1CCOCC1)c1cccnc1 [Example 5, O-(3-morpholinopropyl)-3-pyridinehydroximoyl chloride dihydrochloride] | –
9 | 15 | FC(F)(F)c1cccc(C(Cl)=NOCCCN2CCCCC2)c1 [Example 8, N-[3-(1-piperidinyl)propoxy]-3'-(trifluoromethyl)benzimidoylchloride hydrochloride] | –
